Data reported in patent US6890969B2, “Polymer emulsion preservation using cationic compounds” (Air Products Polymers, L.P., priority 2000, dated 2005).
Read-outs that look alike come from different tables or passages of the source.

What was measured:
GABL = GABL biochallenge test of preserved polymer emulsions (streak plate / RABIT), inoculations passed; format: cell-based, Gluconoacetobacter liquefaciens; conditions: for Inoculations Passed: PVOH-stabilized VAE emulsion, Tg 0 °C, <1000 ppm vinyl acetate; for preservative efficacy against GABL (in words): dosages similar to 200 ppm, failing immediately after the initial GABL inoculation; for preservative quality against GABL compared with cationic compounds (in words): common industrial biocides, CIT/MIT limited to 50 ppm, DBNPA to 100 ppm; for efficacy against GABL (in words): even at doses of 450 and 500 ppm
Method: GABL Inoculum Preparation
A recently isolated culture of GABL was grown on potato dextrose agar slants by inoculating the agar surface. The potato dextrose agar slants were incubated for 48-72 hours at 25° C. After this incubation period, GABL cells were harvested using quarter strength Ringers solution to wash the GABL colonies off of the agar surface. The washings from each slant were combined into one sterile, Erlenmeyer flask. The number of slants and the amount of quarter strength Ringers solution used to wash off the GABL colonies was adjusted during the procedure to obtain a final microbial viable count in the range of 10^8-10^10 CFU/mL.
Rapid Automated Bacterial Impedance Technique (RABIT): supplied by Microbiology International, manufactured by Don Whitley Scientific, Ltd.
RABIT utilizes the principal of impedance microbiology to detect and assess microbial activity in a given sample. Using the RABIT, microbial metabolism is monitored by measuring the amount of carbon dioxide produced by actively respiring microorganisms. The electrodes in the RABIT test cells are partially covered with alkaline agar containing potassium hydroxide. As inoculated test samples are monitored on the RABIT, carbon dioxide produced from microbial metabolism is absorbed by the alkaline agar resulting in a change in conductivity. Conductivity is monitored with time and the time to reach a pre-specified rate of reduction in conductivity is termed the time to detection (TTD). Therefore, the shorter the TTD, the higher the number of microorganisms present. Failure can be defined as three successive decreases in conductivity equal to or greater than a pre-specified value (−10 microSiemens is recommended by the manufacturer) at any time during the 72 hour RABIT monitoring period. Alternatively, failure can be defined as a pre-specified total change in conductivity.
Biochallenge Test Procedure
Samples (50 g each) of each test emulsion containing a test antimicrobial agent were inoculated with 1.0 mL of the GABL inoculum. After mixing well, the samples were then placed in a 30° C. incubator. After 1, 2, and 6 days of incubation each sample was streak plated onto potato dextrose agar to assess the level of surviving GABL microorganisms. The potato dextrose agar plates were incubated at 25° C. for 48-72 hours before assessing the growth. On the seventh day of incubation, each test emulsion sample was inoculated again with a freshly prepared GABL inoculum, mixed well, then placed back into the incubator. The samples were again streak plated onto potato dextrose agar after incubating for 1, 2, and 6 days since the second inoculation. On the fourteenth day after the test was initiated, the test emulsions were inoculated a third time with another freshly prepared GABL inoculum and then placed back into the incubator. The samples were again streak plated onto potato dextrose agar after 1, 2, 6, and 13 days of incubation since the third inoculation to assess surviving microorganisms. Test failure is defined as a microbial viable count >300 CFU/10 μL observed from the potato dextrose agar streak plate assessments.
Biochallenge Test Procedure Via the RABIT
A small amount of a microbial nutrient was added to each emulsion test sample (50 g) containing a test antimicrobial agent. The resulting samples were then inoculated with 1.0 mL of the GABL inoculum. After mixing well, an aliquot (5 g) of each test sample was placed into separate RABIT indirect conductivity tubes. The indirect conductivity tubes were then placed into the RABIT incubator modules set at 30° C. and the conductivity changes monitored for up to 72 hours. The remainder of each test sample was stored in a 30° C. incubator during the RABIT monitoring period. At the completion of the RABIT monitoring period, the aliquot samples were placed back into their respective sample containers. Each test sample was then re-inoculated with a freshly prepared GABL inoculum. […]

mixed bacterial pool = format: cell-based; conditions: PVOH-stabilized VAE emulsion Tg 0, <1000 ppm vinyl acetate
Method: The preservative efficacy of several cationic compounds in a poly(vinyl alcohol)-stabilized VAE copolymer emulsion (Tg=0) containing less than 1000 ppm vinyl acetate was assessed according to the following procedure:
Aeromonas hydrophilia, Alcaligenes faecalis, Corynebacterium ammoniagenes, Enterobacter aerogenes, Escherichia coli, Klebsiella pneumoniae, Pseudomonas aeruginosa, Proteus vulgaris, Providencia rettgeri, Pseudomonas stutzeri, Shewanella putrefaciens, Serratia liquefaciens, Acinetobacter baumannii, Burkholderia cepacia, Chryseobacterium meningosepticum, Sphingobacterium spiritivorum, Ralstonia pickettii, and GABL.
Mixed Bacterial Pool Inoculum Preparation
Each bacterial culture was individually grown on nutrient agar slants, except GABL was grown on potato dextrose agar slants, by inoculating the agar surfaces. The nutrient agar slants were incubated for 24-48 hours at 30° C. and the potato dextrose agar slants were incubated for 48-72 hours at 25° C. After this incubation period, the cells were harvested using quarter strength Ringers solution to wash the bacterial colonies off the agar surface. The washings from all of the slants were combined into one sterile, Erlenmeyer flask. The number of slants and the amount of Ringers Solution used to wash off the bacterial colonies is adjusted during the procedure to obtain a final mixed microbial viable count in the range of 10^8-10^10 CFU/mL.
Bacterial Biochallenge Test Procedure
The RABIT procedures were followed as described in Example 1, except the mixed bacterial pool inoculum was used to inoculate the test samples instead of the GABL inoculum.

## CCCCCCCCCC[N+](C)(C)CCCCCCCCCC.[Cl-] [BTC ® 1010, Didecyldimethylammonium chloride]
GABL; biocide dosage 200 ppm active, listed as BTC 1010
  Inoculations Passed: 3

## CCCCCCCCCCCCCCCC[n+]1ccccc1 [CPC, cetylpyridinium chloride, reference compound]
Mixed bacterial pool; active biocide dosage 300 ppm
  Inoculations Passed: 5
Mixed bacterial pool; active biocide dosage 400 ppm
  Inoculations Passed: 7
GABL; biocide dosage 100 ppm active
  Inoculations Passed: 0
GABL; biocide dosage 250 ppm active
  Inoculations Passed: 2
GABL; biocide dosage 300 ppm active
  Inoculations Passed: 5

## CCCCCCCCCCCCCCCC[N+](C)(C)C.[Br-] [CTAB, cetyltrimethylammonium bromide]
GABL; biocide dosage 300 ppm active
  Inoculations Passed: 1
GABL
  preservative efficacy against GABL (in words): ineffective

## CC(=O)O.CC(=O)O.NC(=N\CCCCCC/N=C(N)/N=C(\N)Nc1ccc(Cl)cc1)/N=C(\N)Nc1ccc(Cl)cc1 [Chlorhexidine diacetate, reference compound]
GABL; biocide dosage 400 ppm active
  Inoculations Passed: 0

## N=C(NCCCCCCNC(=N)NC(=N)Nc1ccc(Cl)cc1)NC(=N)Nc1ccc(Cl)cc1.O=C(O)[C@H](O)[C@@H](O)[C@H](O)[C@H](O)CO.O=C(O)[C@H](O)[C@@H](O)[C@H](O)[C@H](O)CO [Chlorhexidine digluconate, reference compound]
GABL; biocide dosage 250 ppm active
  Inoculations Passed: 0

## N#CCCC(Br)(C#N)CBr (stereo not shown) [DBDCB, 1,2-dibromo-2,4-dicyanobutane, reference compound]
GABL; biocide dosage 450 ppm active
  Inoculations Passed: 0
GABL
  preservative quality against GABL compared with cationic compounds (in words): inferior preservatives
  efficacy against GABL (in words): ineffective

## N#CC(Br)(Br)C(N)=O [DBNPA, 2,2-dibromo-3-nitrilo-propionamide, reference compound]
GABL; biocide dosage 100 ppm active
  Inoculations Passed: 0
GABL
  preservative quality against GABL compared with cationic compounds (in words): inferior preservatives
  efficacy against GABL (in words): ineffective

## O=CCCCC=O [Glutaraldehyde, reference compound]
GABL; biocide dosage 500 ppm active
  Inoculations Passed: 0
GABL
  preservative quality against GABL compared with cationic compounds (in words): inferior preservatives
  efficacy against GABL (in words): ineffective

## NCC(=O)O [Glycine]
GABL; biocide dosage 500 ppm active
  Inoculations Passed: 0

## CCCCCCCCCC[N+](C)(C)CCCCCCCCCC.[Cl-] [TPI ® 1716, Didecyldimethylammonium chloride]
GABL; biocide dosage 100 ppm active
  Inoculations Passed: 0
GABL; biocide dosage 200 ppm active, listed as TPI 1716
  Inoculations Passed: 2
GABL; biocide dosage 300 ppm active
  Inoculations Passed: ≧5

## CC(C)[C@H](N)C(=O)O [Valine]
GABL; biocide dosage 1000 ppm active
  Inoculations Passed: 0

## [H]/N=C(\N/C(=N/[H])NCCCCCCNC(=N)NC(=N)Nc1ccc(Cl)cc1)Nc1ccc(Cl)cc1 [chlorhexidine, reference compound]
GABL
  preservative efficacy against GABL (in words): ineffective

## Benzalkonium chloride [TPI ® 1717]
GABL; biocide dosage 200 ppm active
  Inoculations Passed: 0
GABL; biocide dosage 300 ppm active
  Inoculations Passed: 0

## Tetrakis(hydroxymethyl) phosphonium sulfate [Tolcide ® PS]
GABL; biocide dosage 500 ppm active
  Inoculations Passed: 0
